Results on seven substances are retold here after patent US20230021365A1, “COMPOSITION COMPRISING P53-ACTIVATING PEPTIDE” (SUPADELIXIR INC., priority 2019, published 2023).

In this assay the test system is interaction between p53 and POLII. Nature of the assay: in situ PLA (proximity ligation assay) of physical binding between p53 and RNA Polymerase II (POLII) in HaCaT cells. It is filed as cell-based, human. Particulars: summary statement in the description. The method, then:
After treating cells with the peptides of the present invention, the effects thereof on the physical binding between p53 and RNA Polymerase II (POLII) were evaluated through an in situ PLA (proximity ligation assay) method. HaCaT cells (human keratinocytes, CLS) were added at 4.5×10^4 cells per well, along with a DMEM containing 10% fetal bovine serum, to each well of a 24-well microplate and then cultured at 37° C. in a 5% CO2 incubator for 24 hours. The peptide solutions of Example 2 were added thereto so that the concentration of each peptide in the medium was 20 μM, followed by incubating for 1 hour under the same condition. […] The cells of each well were washed with PBS, fixed by treating with 2% formaldehyde for 15 minutes, and then treated with 0.1% TritonX-100 for 5 minutes to increase antibody permeability into the cells. Anti-p53 polyclonal antibody (Abcam, UK) and anti-POLII polyclonal antibody (Santa Cruz, Calif., USA) were added thereto. After the PLA probe was added thereto using the in situ PLA kit (Sigma-Aldrich), hybridization, ligation, amplification and mounting steps were carried out according to the manufacturer's protocol. Each physical interaction between p53 and POLII was quantified by measuring the luminescence signals (PLA signals) detected in each cell with a confocal laser microscope (Olympus fluoview FW1000; Olympus, Tokyo, Japan).
For Leu-Gly-Asp (LGD) [Pep 3], the “activity in decreasing the interaction between p53 and MDM2 and thus increasing the interaction between p53 and POLII” value is on record as “particularly excellent activity”. With Leu-Ala-Asp (LAD) [Pep 4], the “activity in decreasing the interaction between p53 and MDM2 and thus increasing the interaction between p53 and POLII” value is “particularly excellent activity”. As to Leu-Lys-Asp (LKD) [Pep 7], the “activity in decreasing the interaction between p53 and MDM2 and thus increasing the interaction between p53 and POLII” value is reported as “particularly excellent activity”. The value for Leu-Arg-Asp (LRD) [Pep 6] was “particularly excellent activity”. With Leu-Ser-Asp (LSD) [Pep 2] the entry was “particularly excellent activity”; with Leu-Tyr-Asp (LYD) [Pep 9], “particularly excellent activity”.

On to Leu-Thr-Asp (LTD) [Pep 18], for which the “activity in decreasing the interaction between p53 and MDM2 and thus increasing the interaction between p53 and POLII” value was “particularly excellent activity”.
